Measurements from patent US20210393621A1, “COMBINATION SEROTONIN SPECIFIC REUPTAKE INHIBITOR AND SEROTONIN 1A RECEPTOR PARTIAL AGONIST FOR REDUCING L-DOPA-INDUCED DYSKINESIA” (The Research Foundation for The State University of new York, priority 2018, published 2021).
Like-named read-outs stand apart in the source and are kept apart here.

Assays:
[1] = system: striatal c-Fos, PPD, PPE, PPT and 5-HT1AR mRNA; assay: Experiment 2: real-time RT-PCR of striatal gene expression
[2] = biological target: T1, SERT (Rattus norvegicus, UniProt P31652); settings: rat cortex and hippocampus ex vivo, cited from earlier work
T1 construct: 50% occupancy at 1-3 mg/kg in rat cortex and hippocampus ex vivo; from tissue; host or cells: rat cortex and hippocampus

[3] = biological target: T2, 5-HT1A receptor (Homo sapiens, UniProt P08908); settings: cited from earlier work
T2 sequence (P08908 1-422): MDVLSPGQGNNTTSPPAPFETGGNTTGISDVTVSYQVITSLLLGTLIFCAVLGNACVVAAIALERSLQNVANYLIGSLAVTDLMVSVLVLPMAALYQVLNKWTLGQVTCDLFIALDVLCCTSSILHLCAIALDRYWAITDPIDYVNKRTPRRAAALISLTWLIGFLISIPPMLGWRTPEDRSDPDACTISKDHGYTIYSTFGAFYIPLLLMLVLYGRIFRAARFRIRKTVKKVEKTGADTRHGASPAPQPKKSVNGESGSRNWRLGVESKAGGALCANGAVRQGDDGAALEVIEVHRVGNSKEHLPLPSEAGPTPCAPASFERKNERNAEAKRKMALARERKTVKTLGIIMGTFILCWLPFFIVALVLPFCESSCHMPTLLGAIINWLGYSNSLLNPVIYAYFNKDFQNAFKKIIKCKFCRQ

[4] = biological target: dopamine transporter (DAT) (Homo sapiens, UniProt Q01959); settings: read-out: Ki for DAT (dopamine reuptake site); cited from earlier work
[5] = system: 6-OHDA-lesioned hemi-parkinsonian rats; assay: Experiment 2: forepaw adjusting steps (FAS); format: in vivo, Sprague-Dawley rats; settings: Vilazodone 10 mg/kg + L-DOPA 6 mg/kg; by Day 15
Experimental: […].). All VZD injections were administered 5 min prior to LD. […] AIMs values expressed are the median sum of axial, limb, and orolingual (ALO) behaviors. […] Values are expressed as medians [±median absolute difference (M.A.D.)]. […] Forepaw adjusting steps (FAS): The FAS test is a measure of forelimb akinesia performed according to previous protocols (Bishop et al., 2012; Chang et al., 1999). Data are presented as mean percent intact stepping where the sum of the total steps with the lesioned forepaw was divided by the total steps with the unlesioned forepaw multiplied by 100. Lower percent intact scores indicate greater forelimb akinesia. Prior to baseline, rats received 2 acclimation periods. On-treatment FAS was performed 60 min post-L-DOPA.

[6] = cited from earlier work
[7] = system: striatal and raphe tissue monoamines; assay: Experiment 1: HPLC of tissue monoamines and metabolites in striatum and dorsal raphe nucleus; settings: for 5-HIAA / 5-HT / 5-HT Turnover / DA Turnover / DOPAC / DA: 60 min post-LD
Experimental: Three-weeks post-lesion, animals were divided into 2 equally disabled groups, measured by forepaw adjusting steps (FAS, see below). One group (n=8) began receiving 14 days of daily vehicle (0.9% NaCl+0.1% ascorbic acid) and the other (n=22) received L-DOPA methyl ester (6 mg/kg, s.c.; Sigma)+DL-serine 2-(2,3,4-trihydroxybenzyl) hydrazine hydrochloride (benserazide; 15 mg/kg, s.c.; Sigma), hereafter L-DOPA, dissolved in vehicle at a volume of 1 mg/kg. Treatment persisted for 14 days to produce stable AIMs expression (Putterman et al., 2007; Conti et al., 2014). Thereafter, L-DOPA-treated animals with Axial, Limb, and Orolingual (ALO) AIMs (see description below, FIG. 1A)<30 were excluded from the study and the remaining L-DOPA-treated animals were divided into 3 equally dyskinetic groups. […] Daily injections continued over 23 days, with behavior assayed on Days 15, 22, 29, and 36. On Day 37, animals were killed 60 min post-treatment Left and right dorsal striata and DRN were dissected and flash frozen for HPLC analyses.
High-performance liquid chromatography (HPLC): HPLC, a method for semi-automated catecholamine analysis with coulometric detection, was performed according to prior protocols (Bishop et al., 2009) to determine the tissue levels of monoamines, their metabolites, and monoamine turnover in the striatum and DRN. The limit of detection for DOPAC, DA, 5-hydroxyindoleacetic acid (5-HIAA) and 5-HT was 10^−10 M. Final oxidation current values were plotted on a standard curve from 10^−6 M to 10^−9 M and expressed as pg of monoamine or metabolite per mg of tissue unless otherwise specified.
On the final treatment day, animals were sacrificed 60 min post-LD treatment and left and right striata and dorsal raphe nucleus (DRN) were collected for high performance liquid chromatography (HPLC) analysis. Values (means±standard mean error) are expressed as picograms of monoamine or metabolite per milligram wet tissue weight. Turnover estimates were determined by dividing a subjects metabolite value by its corresponding monoamine. Differences were assessed by a 2×4 (lesion×treatment) ANOVA, followed by Fisher's LSD post-hocs when appropriate. *p<0.01 vs lesion vs intact; +p<0.05 vs all; ^p<0.05 vs VZD (0)+LD (0); #p<0.05 vs VZD (0)+LD (6)

[8] = lesioned striata, VZD 0, 10 or 20 mg/kg + L-DOPA 6 mg/kg daily, day 23, 60 min post-injection
[9] = administered with either a fatty or light meal
[10] = Dorsal Raphe Nucleus, VZD(10) + LD(6) mg/kg
[11] = Dorsal Raphe Nucleus, VZD(20) + LD(6) mg/kg
[12] = Striatum, Intact, VZD(10) + LD(6) mg/kg
[13] = Striatum, Intact, VZD(20) + LD(6) mg/kg
[14] = Striatum, Lesion, VZD(10) + LD(6) mg/kg
[15] = Striatum, Lesion, VZD(20) + LD(6) mg/kg

T1 sequence (P31652 whole entry): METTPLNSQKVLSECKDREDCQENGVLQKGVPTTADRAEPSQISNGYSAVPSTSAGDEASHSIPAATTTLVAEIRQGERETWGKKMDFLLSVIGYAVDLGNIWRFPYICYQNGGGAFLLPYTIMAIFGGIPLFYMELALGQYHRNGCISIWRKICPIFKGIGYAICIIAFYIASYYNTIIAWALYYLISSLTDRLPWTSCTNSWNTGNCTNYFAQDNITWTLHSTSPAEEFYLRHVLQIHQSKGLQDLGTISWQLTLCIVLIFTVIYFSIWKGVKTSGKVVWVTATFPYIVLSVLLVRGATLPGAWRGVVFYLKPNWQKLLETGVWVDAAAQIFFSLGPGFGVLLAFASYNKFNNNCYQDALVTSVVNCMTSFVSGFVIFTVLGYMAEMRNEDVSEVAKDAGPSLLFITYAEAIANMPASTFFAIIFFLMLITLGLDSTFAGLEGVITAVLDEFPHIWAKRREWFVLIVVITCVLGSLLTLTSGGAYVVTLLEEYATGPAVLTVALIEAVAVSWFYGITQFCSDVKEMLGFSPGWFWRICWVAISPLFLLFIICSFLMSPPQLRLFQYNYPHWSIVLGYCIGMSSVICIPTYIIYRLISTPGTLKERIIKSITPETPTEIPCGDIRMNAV
Sequence of dopamine transporter (DAT) (Q01959 whole entry, species assumed): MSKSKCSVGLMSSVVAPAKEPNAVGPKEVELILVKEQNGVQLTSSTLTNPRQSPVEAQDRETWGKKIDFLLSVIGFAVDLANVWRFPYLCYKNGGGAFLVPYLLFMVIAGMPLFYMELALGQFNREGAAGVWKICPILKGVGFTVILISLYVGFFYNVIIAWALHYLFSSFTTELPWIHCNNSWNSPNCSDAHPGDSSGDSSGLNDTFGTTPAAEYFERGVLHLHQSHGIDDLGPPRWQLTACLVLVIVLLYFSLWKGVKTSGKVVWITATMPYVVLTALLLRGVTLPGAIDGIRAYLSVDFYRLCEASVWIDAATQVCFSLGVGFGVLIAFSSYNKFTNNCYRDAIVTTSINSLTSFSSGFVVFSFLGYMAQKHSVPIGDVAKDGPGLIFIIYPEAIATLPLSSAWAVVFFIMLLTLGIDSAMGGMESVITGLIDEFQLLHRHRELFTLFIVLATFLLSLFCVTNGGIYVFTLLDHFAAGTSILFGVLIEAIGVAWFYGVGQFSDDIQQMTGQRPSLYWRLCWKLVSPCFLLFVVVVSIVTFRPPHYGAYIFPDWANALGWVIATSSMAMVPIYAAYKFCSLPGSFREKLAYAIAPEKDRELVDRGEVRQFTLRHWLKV

In the case of `Cl.N#Cc1ccc2[nH]cc(CCCCN3CCN(c4ccc5oc(C(N)=O)cc5c4)CC3)c2c1` [Vilazodone, 5-{4-[4-(5-cyano-3-indolyl)-butyl]-1-piperazinyl}-benzofuran-2-carboxamide hydrochloride], the “striatal PPT mRNA” value ([1]; FIG. 6B) is reported as “significantly reduced it”, the “striatal 5-HT1AR mRNA” value ([1]; day 23) is reported as “did not affect striatal 5-HT1AR mRNA” and the “striatal PPE mRNA” value ([1]; lesioned striata, L-DOPA 6 mg/kg, Vilazodone 20 mg/kg) is reported as “modestly, though significantly reduced”. For the same compound, the “striatal PPD mRNA” value [1, 8] was “dose-dependently attenuated”, the “striatal c-Fos mRNA” value [1, 8] was “diminished” and the SERT occupancy ([2]; 10 mg/kg) was 100%. The SERT occupancy ([2]; 1-3 mg/kg) was 50%, the “5-HT1A receptor IA” value [3] was 60-70% and the Ki [4] was 37 nM. For the same compound, the “FAS, pro-motor effects versus Vilazodone (0)+L-DOPA (6 mg/kg)” value [5] was “significantly enhanced the pro-motor effects of L-DOPA”, the AUC increase [6, 9] was 64%-85% and the Cmax increase [6, 9] was 147%-160%. The bioavailability ([6]; under fed conditions) was 72%, the 5-HIAA [7, 10] was 2541 ± 187^ picograms per milligram wet ti and the 5-HT [7, 10] was 7013 ± 462^^ picograms per milligram wet ti. The “5-HT Turnover” value [7, 10] was 0.37 ± 0.02, the “DA Turnover” value [7, 10] was 7.60 ± 0.78 and the DOPAC [7, 10] was 1175 ± 234 picograms per milligram wet ti. The 5-HIAA [7, 11] was 1985 ± 345^ picograms per milligram wet ti, the 5-HT [7, 11] was 5946 ± 776^ picograms per milligram wet ti and the “5-HT Turnover” value [7, 11] was 0.32 ± 0.03. The DA [7, 11] was 128 ± 15.2 picograms per milligram wet ti, the “DA Turnover” value [7, 11] was 7.19 ± 1.12 and the DOPAC [7, 11] was 909 ± 186 picograms per milligram wet ti. For the same compound, the 5-HIAA [7, 12] was 470 ± 35.5 picograms per milligram wet ti, the 5-HT [7, 12] was 326 ± 24.3 picograms per milligram wet ti and the “5-HT Turnover” value [7, 12] was 1.45 ± 0.04. For the same compound, the DA [7, 12] was 4827 ± 222 picograms per milligram wet ti, the “DA Turnover” value [7, 12] was 0.85 ± 0.05 and the DOPAC [7, 12] was 4138 ± 332^ picograms per milligram wet ti. The 5-HIAA [7, 13] was 422 ± 38.6 picograms per milligram wet ti, the 5-HT [7, 13] was 305 ± 33.5 picograms per milligram wet ti and the “5-HT Turnover” value [7, 13] was 1.41 ± 0.07. The DA [7, 13] was 4560 ± 337 picograms per milligram wet ti, the “DA Turnover” value [7, 13] was 0.84 ± 0.03 and the DOPAC [7, 13] was 3839 ± 306 picograms per milligram wet ti. For the same compound, the 5-HIAA [7, 14] was 842 ± 78.8 picograms per milligram wet ti, the 5-HT [7, 14] was 261 ± 30.7 picograms per milligram wet ti and the “5-HT Turnover” value [7, 14] was 3.38 ± 0.31. The DA [7, 14] was 128 ± 14.2 picograms per milligram wet ti, the “DA Turnover” value [7, 14] was 1.56 ± 0.18 and the 5-HIAA [7, 15] was 596 ± 55.1+ picograms per milligram wet ti. For the same compound, the 5-HT [7, 15] was 223 ± 23.8 picograms per milligram wet ti, the “5-HT Turnover” value [7, 15] was 2.84 ± 0.33^ and the DA [7, 15] was 128 ± 26.2 picograms per milligram wet ti. For the same compound, the “DA Turnover” value [7, 15] was 1.50 ± 0.15, the DOPAC [7, 15] was 190 ± 44.6 picograms per milligram wet ti and the “DRN 5-HT” value ([7]; Vilazodone 10 mg/kg + L-DOPA) was “significantly increased DRN 5-HT”. The “striatal 5-HT Turnover” value ([7]; Vilazodone 20 mg/kg, compared to Vilazodone (0 mg/kg)+L-DOPA (0 mg/kg)) was “reduced 5-HT Turnover”, the “striatal 5-HIAA (printed 5-HIM)” value ([7]; Vilazodone 20 mg/kg, compared to all other treatments) was “attenuated 5-HIM” and the “DRN DA Turnover” value ([7]; Vilazodone 10 or 20 mg/kg + L-DOPA) was “attenuated”. For the same compound, the “DA in the lesioned striatum” value ([7]; both doses (10, 20 mg/kg) + L-DOPA vs groups receiving Vilazodone vehicle) was “significantly increased DA” and the “DRN 5-HT Turnover” value ([7]; both doses of Vilazodone + L-DOPA) was “attenuated 5-HT Turnover”.
